Measurements as given in PMC8880098, “Synthesis, Antibacterial Evaluation, and Computational Studies of a Diverse Set of Linezolid Conjugates” (Pharmaceuticals, 2022).
≈ marks a conversion by molar mass, not a printed value. Like-named read-outs stand apart in the source and are kept apart here.

Columns and labels:
[1] = test system: Pseudomonas aeruginosa ATCC 15692; design: method as in PMID 27025339; details: reference fluoroquinolones, cited from earlier work; for MIC (μmol), P. Aeruginosa (ATCC 15692): value in parentheses
[2] = test system: Staphylococcus aureus ATCC 6538; design: method as in PMID 27025339; details: reference fluoroquinolones, cited from earlier work; for MIC (μmol), S. Aureus (ATCC 6538): value in parentheses
[3] = test system: Bacillus subtilis ATCC 6633; experiment: microbe, parasite or virus in culture; design: species or system bacteria; Broth microdilution MIC in Mueller-Hinton broth, absorbance at 620 nm; details: ATCC6633, 24 h, read-out: Observed MIC, uM (B. subtilis)
Source text: (§1) Antibacterial properties of the synthesized compounds (3a–k, 5a–f, 7a–c, 9a–c, 11a–f, 13 and 15) were screened against Gram-positive (Staphylococcus aureus ATCC 6538, Bacillus subtilis ATCC 6633) and Gram-negative (Pseudomonas aeruginosa ATCC 15,692 and Escherichia coli ATCC 47076) bacteria utilizing the standard technique. Linezolid was used as a standard reference/drug in the current study. The tested bacterial strains were obtained from MERCIN Center, Faculty of Agriculture, Ain Shams University, Cairo, Egypt. To determine the antibacterial activity, stock solutions of the tested compounds and standard reference were prepared with up to 100% DMSO and stored at […]. If necessary, the solutions were heated to 40–60 °C before testing to facilitate complete dissolution. Double distilled water was used in all dilutions prepared. […] A microdilution susceptibility test was used for MIC determination (Mueller–Hinton broth in 96-well plates) according to the CLSI (the Clinical and Laboratory Standards Institute, Malvern, PA, USA). The bacterial inoculum was adjusted to approximately 2.5–3 × 10^4 cells/mL in Mueller–Hinton broth and incubated in a ratio of 1:1 with the test derivatives in polystyrene 96-well flat-bottom microplates. Positive growth control (without test derivatives) and negative control (without bacteria) were included. The microplates were placed in an incubator set to 37 °C for 24 h. Absorbance was measured at 620 nm at the end of the incubation period. The cut-off level for follow-up studies was defined as a minimum of 90% inhibition of growth compared to the untreated sample. Experiments were conducted once in triplicate. For selected compounds, minimum inhibitory concentration (MIC) values were determined by dose–response experiments. Experiments were performed at least twice, in triplicate per concentration tested.

[4] = test system: Staphylococcus aureus ATCC 6538; experiment: microbe, parasite or virus in culture; design: species or system bacteria; Broth microdilution MIC in Mueller-Hinton broth, absorbance at 620 nm; details: ATCC6538, 24 h, read-out: Observed MIC, uM (S. aureus)
Source text: as §1

[5] = test system: Pseudomonas aeruginosa ATCC 15692; experiment: Antibacterial MIC, microdilution susceptibility test (CLSI); assay type: cell-based
Source text: (§2) The synthesized linezolid conjugates (3a–k, 5a–f, 7a–c, 9a–c, 11a–f, 13, and 15) were subjected for antimicrobial properties determination against Gram-positive (Staphylococcus aureus ATCC 6538, Bacillus subtilis ATCC 6633) and Gram-negative (Pseudomonas aeruginosa ATCC 15692, Escherichia coli ATCC 47076) bacteria by the standard technique.
(§3) Antibacterial properties of the synthesized compounds (3a–k, 5a–f, 7a–c, 9a–c, 11a–f, 13 and 15) were screened against Gram-positive (Staphylococcus aureus ATCC 6538, Bacillus subtilis ATCC 6633) and Gram-negative (Pseudomonas aeruginosa ATCC 15,692 and Escherichia coli ATCC 47076) bacteria utilizing the standard technique. Linezolid was used as a standard reference/drug in the current study. The tested bacterial strains were obtained from MERCIN Center, Faculty of Agriculture, Ain Shams University, Cairo, Egypt.
as §1, with “To” for “Antibacterial properties of the synthesized compounds (3a–k, 5a–f, 7a–c, 9a–c, 11a–f, 13 and 15) were screened against Gram-positive (Staphylococcus aureus ATCC 6538, Bacillus subtilis ATCC 6633) and Gram-negative (Pseudomonas aeruginosa ATCC 15,692 and Escherichia coli ATCC 47076) bacteria utilizing the standard technique. Linezolid was used as a standard reference/drug in the current study. The tested bacterial strains were obtained from MERCIN Center, Faculty of Agriculture, Ain Shams University, Cairo, Egypt. To”

[6] = test system: Escherichia coli ATCC 47076; experiment: as above; assay type: cell-based
Source text: as §2, §3
as §1, with “To” for “Antibacterial properties of the synthesized compounds (3a–k, 5a–f, 7a–c, 9a–c, 11a–f, 13 and 15) were screened against Gram-positive (Staphylococcus aureus ATCC 6538, Bacillus subtilis ATCC 6633) and Gram-negative (Pseudomonas aeruginosa ATCC 15,692 and Escherichia coli ATCC 47076) bacteria utilizing the standard technique. Linezolid was used as a standard reference/drug in the current study. The tested bacterial strains were obtained from MERCIN Center, Faculty of Agriculture, Ain Shams University, Cairo, Egypt. To”

[7] = test system: Bacillus subtilis ATCC 6633; experiment: as above; assay type: cell-based; details: Bacillus subtilis, ATCC6633, 24 h, Mueller–Hinton broth, 37 °C, 24 h; read-out: MIC, μg/mL ± SE, B. Subtilis (ATCC 6633)
Source text: as §2, §3
as §1, with “To” for “Antibacterial properties of the synthesized compounds (3a–k, 5a–f, 7a–c, 9a–c, 11a–f, 13 and 15) were screened against Gram-positive (Staphylococcus aureus ATCC 6538, Bacillus subtilis ATCC 6633) and Gram-negative (Pseudomonas aeruginosa ATCC 15,692 and Escherichia coli ATCC 47076) bacteria utilizing the standard technique. Linezolid was used as a standard reference/drug in the current study. The tested bacterial strains were obtained from MERCIN Center, Faculty of Agriculture, Ain Shams University, Cairo, Egypt. To”

[8] = test system: Staphylococcus aureus ATCC 6538; experiment: as above; assay type: cell-based; details: Staphylococcus aureus, ATCC6538, 24 h, Mueller–Hinton broth, 37 °C, 24 h; read-out: MIC, μg/mL ± SE, S. Aureus (ATCC 6538)
Source text: as §2, §3
as §1, with “To” for “Antibacterial properties of the synthesized compounds (3a–k, 5a–f, 7a–c, 9a–c, 11a–f, 13 and 15) were screened against Gram-positive (Staphylococcus aureus ATCC 6538, Bacillus subtilis ATCC 6633) and Gram-negative (Pseudomonas aeruginosa ATCC 15,692 and Escherichia coli ATCC 47076) bacteria utilizing the standard technique. Linezolid was used as a standard reference/drug in the current study. The tested bacterial strains were obtained from MERCIN Center, Faculty of Agriculture, Ain Shams University, Cairo, Egypt. To”

[9] = ATCC15692, Mueller–Hinton broth, 37 °C, 24 h, read-out: MIC, μg/mL ± SE, P. Aeruginosa (ATCC 15692)
[10] = ATCC15692, value in parentheses, read-out: MIC (μmol), P. Aeruginosa (ATCC 15692) (converted)
[11] = ATCC47076, Mueller–Hinton broth, 37 °C, 24 h, read-out: MIC, μg/mL ± SE, E. Coli (ATCC 47076)
[12] = ATCC47076, value in parentheses, read-out: MIC (μmol), E. Coli (ATCC 47076) (converted)

Compound | MIC, μg/mL ± SE, P. Aeruginosa (ATCC 15692) [1] | MIC (μmol), P. Aeruginosa (ATCC 15692) [1] | MIC, μg/mL ± SE, S. Aureus (ATCC 6538) [2] | MIC (μmol), S. Aureus (ATCC 6538) [2] | melting point | MIC [3] | MIC [4] | MIC [5, 9] | MIC [5, 10] | MIC [6, 11] | MIC [6, 12] | MIC [7] | MIC [8]
O=C(O)c1cn(C2CC2)c2cc(N3CCNCC3)c(F)cc2c1=O [Ciprofloxacin] | 4.8 ± 0.5 µg/mL (≈ 14.5 µM) | 14.5 µmol | 1250.0 ± 9.6 µg/mL (≈ 3770 µM) | 3772.4 µmol | – | – | – | – | – | – | – | – | –
O=C(NC[C@H]1CN(c2ccc(N3CCOCC3)c(F)c2)C(=O)O1)c1cccc([N+](=O)[O-])c1Cl [Compound 5f, (S)-2-Chloro-N-((3-(3-fluoro-4-morpholinophenyl)-2-oxooxazolidin-5-yl)methy-l)-3-nitrobenzamide] | – | – | – | – | 200 to 202 °C | 8.35 µM (≈ 4 µg/mL) | 16.7 µM (≈ 8 µg/mL) | 32 ± 1.4 µg/mL | 66.8 µM | 32 ± 0.6 µg/mL | 66.8 µM | 4 ± 0.3 µg/mL (≈ 8.35 µM) | 8 ± 0.2 µg/mL (≈ 16.7 µM)
O=C(NC[C@H]1CN(c2ccc(N3CCOCC3)c(F)c2)C(=O)O1)c1cccnc1 [Compound 7b, (S)-N-((3-(3-Fluoro-4-morpholinophenyl)-2-oxooxazolidin-5-yl)methyl)nicotinamide] | – | – | – | – | 182 to 184 °C | 5 µM (≈ 2 µg/mL) | 20 µM (≈ 8 µg/mL) | 32 ± 1.2 µg/mL | 79.9 µM | 32 ± 1 µg/mL | 79.9 µM | 2 ± 0.1 µg/mL (≈ 4.99 µM) | 8 ± 0.2 µg/mL (≈ 20 µM)
O=C(NC[C@H]1CN(c2ccc(N3CCOCC3)c(F)c2)C(=O)O1)c1cnccn1 [Compound 7c, (S)-N-((3-(3-Fluoro-4-morpholinophenyl)-2-oxooxazolidin-5-yl)methyl)pyrazine-2-carboxamide] | – | – | – | – | 190 to 192 °C | 4.98 µM (≈ 2 µg/mL) | 19.9 µM (≈ 8 µg/mL) | 32 ± 1.1 µg/mL | 79.7 µM | 32 ± 0.7 µg/mL | 79.7 µM | 2 ± 0.1 µg/mL (≈ 4.98 µM) | 8 ± 0.1 µg/mL (≈ 19.9 µM)
CC(C)C[C@H](NC(=O)c1cnccn1)C(=O)NC[C@H]1CN(c2ccc(N3CCOCC3)c(F)c2)C(=O)O1 [Compound 9a, N-((S)-1-((((S)-3-(3-Fluoro-4-morpholinophenyl)-2-oxooxazolidin-5-yl)methyl)amino) -4-methyl-1-oxopentan-2-yl)pyrazine-2-carboxamide] | – | – | – | – | 90 to 92 °C | 62.2 µM (≈ 32 µg/mL) | 62.2 µM (≈ 32 µg/mL) | 32 ± 1.3 µg/mL | 62.2 µM | 32 ± 1.6 µg/mL | 62.2 µM | 32 ± 2 µg/mL (≈ 62.2 µM) | 32 ± 0.4 µg/mL (≈ 62.2 µM)
CC(C)[C@H](NC(=O)c1cnccn1)C(=O)NC[C@H]1CN(c2ccc(N3CCOCC3)c(F)c2)C(=O)O1 [Compound 9b, N-((S)-1-((((S)-3-(3-Fluoro-4-morpholinophenyl)-2-oxooxazolidin-5-yl)methyl)amino) -3-methyl-1-oxobutan-2-yl)pyrazine-2-carboxamide] | – | – | – | – | 94 to 96 °C | 63.9 µM (≈ 32 µg/mL) | 63.9 µM (≈ 32 µg/mL) | 32 ± 2.5 µg/mL | 63.9 µM | 32 ± 3.4 µg/mL | 63.9 µM | 32 ± 1.3 µg/mL (≈ 63.9 µM) | 32 ± 1.7 µg/mL (≈ 63.9 µM)
O=C(N[C@@H](Cc1ccccc1)C(=O)NC[C@H]1CN(c2ccc(N3CCOCC3)c(F)c2)C(=O)O1)c1cnccn1 [Compound 9c, N-((S)-1-((((S)-3-(3-Fluoro-4-morpholinophenyl)-2-oxooxazolidin-5-yl)methyl)amino) -1-oxo-3-phenylpropan-2-yl)pyrazine-2-carboxamide] | – | – | – | – | 172 to 174 °C | 58.3 µM (≈ 32 µg/mL) | 58.3 µM (≈ 32 µg/mL) | 32 ± 0.8 µg/mL | 58.3 µM | 32 ± 1 µg/mL | 58.3 µM | 32 ± 0.5 µg/mL (≈ 58.3 µM) | 32 ± 0.9 µg/mL (≈ 58.3 µM)
O=C1O[C@@H](CNCc2ccc(F)cc2F)CN1c1ccc(N2CCOCC2)c(F)c1 [Compound 11e, (S)-5-[{(2,4-Difluorobenzyl)amino}methyl]-3-(3-fluoro-4-morpholinophenyl) oxazolid-ine-2-one] | – | – | – | – | 74 to 76 °C | 75.9 µM (≈ 32 µg/mL) | 75.9 µM (≈ 32 µg/mL) | 32 ± 0.5 µg/mL | 75.9 µM | 32 ± 0.3 µg/mL | 75.9 µM | 32 ± 1.3 µg/mL (≈ 75.9 µM) | 32 ± 0.2 µg/mL (≈ 75.9 µM)
O=C(CCCC[C@@H]1SC[C@@H]2NC(=O)N[C@@H]21)NC[C@H]1CN(c2ccc(N3CCOCC3)c(F)c2)C(=O)O1 [Compound 15, N-(((S)-3-(3-Fluoro-4-morpholinophenyl)-2-oxooxazolidin-5-yl)methyl)-5-((3aS, 4S, 6aR)-2-oxohexahydro-1H-thieno [3,4-d]imidazol-4-yl)pentanamide] | – | – | – | – | 222 to 224 °C | 61.3 µM (≈ 32 µg/mL) | 61.3 µM (≈ 32 µg/mL) | 32 ± 0.3 µg/mL | 61.3 µM | 32 ± 0.7 µg/mL | 61.3 µM | 32 ± 0.2 µg/mL (≈ 61.3 µM) | 32 ± 0.4 µg/mL (≈ 61.3 µM)
CCn1cc(C(=O)O)c(=O)c2cc(F)c(N3CCNCC3)cc21 [Norfloxacin] | 4.8 ± 0.2 µg/mL (≈ 15 µM) | 15.0 µmol | 1250.0 ± 14.2 µg/mL (≈ 3910 µM) | 3914.3 µmol | – | – | – | – | – | – | – | – | –
